How the values were obtained:
[1] = biological target: T1, recombinant human ALK5 (TGF-βR1) protein (Homo sapiens, UniProt P36897); test: Biochemical ALK5 (TGF-βR1) assay to measure pKi (LANCE Ultra ULight kinase assay); conditions: apparent pKi, converted from pIC50 by Cheng-Prusoff
T1 construct: purchased Life Technologies PR9075A
T1 sequence (P36897 34-503): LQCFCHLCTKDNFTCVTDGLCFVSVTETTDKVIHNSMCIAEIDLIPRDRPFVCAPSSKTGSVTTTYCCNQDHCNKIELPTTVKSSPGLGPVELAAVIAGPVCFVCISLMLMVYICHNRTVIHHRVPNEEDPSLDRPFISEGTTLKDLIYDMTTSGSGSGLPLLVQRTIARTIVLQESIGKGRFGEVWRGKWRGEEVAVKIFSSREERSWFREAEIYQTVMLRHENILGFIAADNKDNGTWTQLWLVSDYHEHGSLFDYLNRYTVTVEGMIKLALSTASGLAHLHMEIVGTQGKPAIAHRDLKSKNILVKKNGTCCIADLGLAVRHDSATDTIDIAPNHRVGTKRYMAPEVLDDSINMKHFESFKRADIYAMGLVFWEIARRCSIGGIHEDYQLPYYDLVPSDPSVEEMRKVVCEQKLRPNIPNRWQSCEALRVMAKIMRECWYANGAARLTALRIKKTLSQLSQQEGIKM
Procedure, shortened: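 Enzyme preincubated with compound for 60 min at room temperature, then reacted with ATP (125 μM as 5× stock) for 60 min at 37 °C. Stopped with EDTA plus Eu-anti-phospho-Topoisomerase 2-alpha (Thr1342) antibody and read by TR-FRET at 665 nm. pIC50 from a 4-parameter fit, converted to pKi by Cheng-Prusoff.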

[2] = system: TGF-β-stimulated SMAD3 phosphorylation in BEAS-2B cells; test: Cellular ALK5 potency assay, inhibition of TGF-β stimulated pSMAD3 formation in BEAS-2B cells; assay type: cell-based; conditions: Homo sapiens, pSMAD3, TGF-β 10 ng/mL, read-out: BEAS2B pIC50 (converted)
Procedure, shortened: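 Reported as pIC50, potency reflects dose-dependent loss of AlphaLISA pSMAD3 signal versus TGF-β-stimulated, compound-free BEAS-2B cells. Compound was applied for 1 h in BSA-containing HBSS buffer before a 30-min challenge with TGF-β at 10 ng/mL final.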

Compound | Ki [1] | IC50 [2]
Cc1cccc(-c2nc(Nc3ccnc(Nc4ccc(NC5CNC5)cc4)n3)c3cccn3n2)n1 [Compound 1040, N2-[4-(azetidin-3-ylamino)phenyl]-N4-[2-(6-methyl-2-pyridyl)pyrrolo[2,1-f][1,2,4]triazin-4-yl]pyrimidine-2,4-diamine] | 0.0398 to 0.316 nM | 25.1 to 158 nM
Cc1cccc(-c2nc(Nc3ccnc(Nc4ccc(NC5CCNC5)cc4)n3)c3cccn3n2)n1 (stereo not drawn) [Compound 1041, N4-[2-(6-methyl-2-pyridyl)pyrrolo[2,1-f][1,2,4]triazin-4-yl]-N2-[4-(pyrrolidin-3-ylamino)phenyl]pyrimidine-2,4-diamine] | 0.0398 to 0.316 nM | 25.1 to 158 nM
Cc1cccc(-c2nc(Nc3ccnc(Nc4ccc(NC5CCNCC5)cc4)n3)c3cccn3n2)n1 [Compound 1042, N4-[2-(6-methyl-2-pyridyl)pyrrolo[2,1-f][1,2,4]triazin-4-yl]-N2-[4-(4-piperidylamino)phenyl] pyrimidine-2,4-diamine] | 0.0398 to 0.316 nM | 25.1 to 158 nM
